Tests used:
Format in all cases: in vivo
[1] = test system: canarygrass (Phalaris minor); test: Test B postemergence plant response; conditions: for Plant response rating, Canarygrass: Postemergence
Procedure, shortened: (§1)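 Visual ratings from 0 (no effect) to 100 (complete control), made against controls 13–15 days after treatment, kept in a greenhouse. Compounds were applied postemergence to potted plants at the 1- to 4-leaf stage (2–18 cm).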

[2] = test system: windgrass (Apera spica-venti); test: Test B postemergence plant response; conditions: for Plant response rating, Windgrass: Postemergence
Procedure, shortened: as §1

[3] = test system: winter barley (Hordeum vulgare); test: Test B postemergence plant response; conditions: for Barley plant response rating (0 to 100 scale): 62 g ai/ha, postemergence, 0 is no effect, 100 is complete control; for Plant response rating, Barley: Postemergence
Procedure, shortened: as §1

[4] = test system: chickweed (Stellaria media); test: Test B postemergence plant response; conditions: for Plant response rating, Chickweed: Postemergence
Procedure, shortened: as §1

[5] = test system: barnyardgrass (Echinochloa crus-galli); test: Test A pre-/postemergence plant response
Procedure, shortened: (§2)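 Pre: directed soil spray on seeded loam/sand blend. Post: same formulation (non-phytotoxic solvent + surfactant) on 2–10 cm plants, 1–2 leaf stage. Greenhouse ~10 d; visual injury score 0–100 vs untreated.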

[6] = test system: large crabgrass (Digitaria sanguinalis); test: Test A pre-/postemergence plant response
Procedure, shortened: as §2

[7] = test system: morningglory (Ipomoea spp.); test: Test A pre-/postemergence plant response
Procedure, shortened: as §2

[8] = test system: giant foxtail (Setaria faberii); test: Test A pre-/postemergence plant response
Procedure, shortened: as §2

[9] = test system: corn (Zea mays); test: Test A pre-/postemergence plant response
Procedure, shortened: as §2

[10] = test system: velvetleaf (Abutilon theophrasti); test: Test A pre-/postemergence plant response
Procedure, shortened: as §2

[11] = test system: wheat (Triticum aestivum); test: Test A pre-/postemergence plant response
Procedure, shortened: as §2

[12] = test system: pigweed (Amaranthus retroflexus); test: Test A pre-/postemergence plant response
Procedure, shortened: as §2

[13] = 62 g ai/ha, postemergence, 0 is no effect, 100 is complete control, 13 to 15 days
[14] = 31 g ai/ha, 0 to 100 scale (0 no effect, 100 complete control)
[15] = 125 g ai/ha, scale 0 to 100 (0 no effect, 100 complete control)
[16] = 250 g ai/ha, scale 0 to 100 (0 no effect, 100 complete control), 13 to 15 days
[17] = Postemergence, 125 g ai/ha, 0 to 100 scale where 0 is no effect and 100 is complete control
[18] = Postemergence, 500 g ai/ha, 0 to 100 scale, 0 = no effect, 100 = complete control, approx. ten days
[19] = Preemergence, 125 g ai/ha, 0 to 100 scale, 0 = no effect, 100 = complete control
[20] = Preemergence, 500 g ai/ha, visual injury, 0 to 100 scale (0 no effect, 100 complete control), approx. ten days
[21] = Preemergence, 500 g ai/ha, 0 to 100 scale, 0 = no effect, 100 = complete control

CCCn1c(-c2cccc(C(F)(F)F)c2)ncc(C(=O)C2=C(O)CCCC2=O)c1=O [Compound 155]
Canarygrass plant response rating (0 to 100 scale) [1, 13]: 35
Plant response rating, Canarygrass [1, 14]: 10
Plant response rating, Canarygrass [1, 15]: 50
Plant response rating, Canarygrass [1, 16]: 65
Windgrass plant response rating (0 to 100 scale) [2, 13]: 55
Plant response rating, Windgrass [2, 14]: 50
Plant response rating, Windgrass [2, 15]: 70
Plant response rating, Windgrass [2, 16]: 85
Barley plant response rating (0 to 100 scale) ([3]; 13 to 15 days): 30
Plant response rating, Barley [3, 14]: 30
Plant response rating, Barley [3, 15]: 45
Plant response rating, Barley [3, 16]: 85
Chickweed plant response rating (0 to 100 scale) [4, 13]: 100
Plant response rating, Chickweed [4, 14]: 100
Plant response rating, Chickweed [4, 15]: 100
Plant response rating, Chickweed [4, 16]: 100
Plant response rating, Barnyardgrass [5, 17]: 90
Plant response rating, Barnyardgrass [5, 18]: 100
Plant response rating, Barnyardgrass [5, 19]: 10
Plant response rating, Barnyardgrass [5, 20]: 90
Plant response rating, Crabgrass, Large [6, 17]: 70
Plant response rating, Crabgrass, Large [6, 18]: 90
Plant response rating, Crabgrass, Large [6, 19]: 60
Plant response rating, Crabgrass, Large [6, 20]: 90
Plant response rating, Morningglory [7, 17]: 100
Plant response rating, Morningglory [7, 18]: 100
Plant response rating, Morningglory [7, 19]: 0
Plant response rating, Morningglory [7, 20]: 0
Plant response rating, Foxtail, Giant [8, 17]: 80
Plant response rating, Foxtail, Giant [8, 18]: 90
Plant response rating, Foxtail, Giant [8, 19]: 30
Plant response rating, Foxtail, Giant [8, 20]: 60
Plant response rating, Corn [9, 17]: 20
Plant response rating, Corn [9, 18]: 40
Plant response rating, Corn [9, 19]: 0
Plant response rating, Corn [9, 20]: 30
Plant response rating, Velvetleaf [10, 17]: 100
Plant response rating, Velvetleaf [10, 18]: 100
Plant response rating, Velvetleaf [10, 19]: 60
Plant response rating, Velvetleaf [10, 21]: 100
Plant response rating, Wheat [11, 17]: 0
Plant response rating, Wheat [11, 18]: 30
Plant response rating, Wheat [11, 19]: 0
Plant response rating, Wheat [11, 21]: 0
Plant response rating, Pigweed [12, 17]: 100
Plant response rating, Pigweed [12, 18]: 100
Plant response rating, Pigweed [12, 19]: 90
Plant response rating, Pigweed [12, 20]: 90

CCCn1c(-c2cc(C)cc(C)c2)ncc(C(=O)C2=C(O)CCCC2=O)c1=O [Compound 156]
Plant response rating, Canarygrass [1, 14]: 15
Plant response rating, Canarygrass [1, 15]: 40
Plant response rating, Canarygrass [1, 16]: 60
Plant response rating, Windgrass [2, 14]: 40
Plant response rating, Windgrass [2, 15]: 55
Plant response rating, Windgrass [2, 16]: 60
Barley plant response rating (0 to 100 scale) ([3]; 13 to 15 days): 45
Plant response rating, Barley [3, 14]: 30
Plant response rating, Barley [3, 15]: 60
Plant response rating, Barley [3, 16]: 85
Plant response rating, Chickweed [4, 14]: 80
Plant response rating, Chickweed [4, 15]: 100
Plant response rating, Chickweed [4, 16]: 100
Plant response rating, Barnyardgrass [5, 17]: 90
Plant response rating, Barnyardgrass [5, 18]: 90
Plant response rating, Barnyardgrass [5, 19]: 0
Plant response rating, Barnyardgrass [5, 20]: 80
Plant response rating, Crabgrass, Large [6, 17]: 70
Plant response rating, Crabgrass, Large [6, 18]: 80
Plant response rating, Crabgrass, Large [6, 19]: 10
Plant response rating, Crabgrass, Large [6, 20]: 50
Plant response rating, Morningglory [7, 17]: 100
Plant response rating, Morningglory [7, 18]: 100
Plant response rating, Morningglory [7, 19]: 0
Plant response rating, Morningglory [7, 20]: 0
Plant response rating, Foxtail, Giant [8, 17]: 80
Plant response rating, Foxtail, Giant [8, 18]: 90
Plant response rating, Foxtail, Giant [8, 19]: 10
Plant response rating, Foxtail, Giant [8, 20]: 50
Plant response rating, Corn [9, 17]: 20
Plant response rating, Corn [9, 18]: 20
Plant response rating, Corn [9, 19]: 0
Plant response rating, Corn [9, 20]: 20
Plant response rating, Velvetleaf [10, 17]: 100
Plant response rating, Velvetleaf [10, 18]: 100
Plant response rating, Velvetleaf [10, 19]: 0
Plant response rating, Velvetleaf [10, 21]: 50
Plant response rating, Wheat [11, 17]: 0
Plant response rating, Wheat [11, 18]: 20
Plant response rating, Wheat [11, 19]: 0
Plant response rating, Wheat [11, 21]: 0
Plant response rating, Pigweed [12, 17]: 100
Plant response rating, Pigweed [12, 18]: 100
Plant response rating, Pigweed [12, 19]: 70
Plant response rating, Pigweed [12, 20]: 80

— patent US8952024B2, “Herbicidal pyrimidone derivatives” (E I du Pont de Nemours and Company, priority 2009, dated 2015)
